# Experimental data reported in the METLIN SMRT retention time set (Domingo-Almenara et al. 2019).
# Assay: gradient 5% acetonitrile 3 min, to 50% in 2 min, to 85% in 15 min, held 3 min, 100 µL/min
# Conditions: column: Zorbax Extend-C18 2.1 x 50 mm; eluents: water / acetonitrile, 0.1% formic acid
# Method in brief: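 The system's dead and dwell volumes were 40 μL and 900 μL, with a Zorbax Extend-C18 column (2.1 × 50 mm, 1.8 μm) run at 100 μL/min in water and acetonitrile containing 0.1% formic acid each. Pure standards were analyzed in mixtures of ~100 molecules by HPLC–quadrupole time-of-flight mass spectrometry in positive and negative ionization mode. Retention time was assigned from computationally picked, manually inspected adduct peaks.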
row,SMILES,RP-LC retention time [s]
1,COc1ccc(-c2cc(C(=O)N3CCN(S(=O)(=O)c4ccc(OC)c(OC)c4)CC3)[nH]n2)cc1,795
2,O=C(Cc1c[nH]c2ccccc12)NCC1CCN(c2cc(-c3ccncc3)[nH]n2)CC1,595
3,CCNc1ncnc2sc3c(c12)CCN(S(=O)(=O)c1ccccc1)C3,805
4,CCC1CN2C=NC(N3CCN(S(=O)(=O)Cc4cccc(F)c4)CC3)=CC2=N1 (stereo not drawn),680
5,CCc1ccc(NC(=O)c2cc(C)n3nccc3n2)cc1,1030
6,CC(C)Cn1nc2n(c1=O)CCN(S(=O)(=O)c1ccc(C(C)(C)C)cc1)CC2,631
7,NC(=O)C1CCN(S(=O)(=O)Cc2c(F)cccc2Cl)CC1,649
8,O=C(NCCCc1ccccc1)c1ccc2c(c1)N(CC(=O)N1CCCC1)C(=O)CO2,706
9,O=C1CC(c2nc(-c3ccccn3)no2)CN1c1ccc2c(c1)OCCO2 (stereo not drawn),715
10,CC1CCc2cc(F)ccc2N1C(=O)C12CCC(C1)C(C)(C)C2=O (stereo not drawn),1020
11,Cc1cccc(Oc2nccnc2N2CCC(C(=O)NC(C)c3ccccc3)CC2)c1 (stereo not drawn),1020
12,Cc1ccc(NC(=O)NC2CCN(c3cc(C)cc(C)c3)C2=O)cc1 (stereo not drawn),607
13,CC(C)c1nnc2ccc(NC(=O)Nc3ccccc3)cn12,712
14,COC(=O)c1cccc(NC(=O)C2CC(=O)N(c3ccccc3)C2)c1 (stereo not drawn),725
15,O=C1CCN(S(=O)(=O)c2ccccc2)CCCN(S(=O)(=O)Cc2ccccc2)CCN1,779
16,Cc1oc(-c2[nH]ncc2C(=O)N2CCOCC2)cc1S(=O)(=O)Nc1ccccc1F,662
17,CCN1CCN(C(=O)C2CCCN(S(=O)(=O)c3ccc(OC)c(OC)c3)C2)CC1 (stereo not drawn),593
18,O=c1n(CCOc2ccccc2)nc2c(S(=O)(=O)N3CCc4ccccc4C3)cccn12,820
19,N#Cc1ccc(C(=O)N2CCN(S(=O)(=O)c3cc(-c4noc(C5CCC5)n4)cs3)CC2)cc1,975
20,O=C(c1cccc(Br)c1)N1CCN(c2cc(-c3ccc(Cl)cc3)[nH]n2)CC1,958
21,Cc1ccc(Cl)cc1NC(=O)CC1C(=O)NCCN1C(=O)NC1CCCCC1 (stereo not drawn),766
22,C[C@@H]1OC(=O)[C@H]2C[C@H]3CCCC[C@@H]3[C@@H](/C=C/[C@H]3CCC[C@H](C)N3C)[C@@H]12,745

row,SMILES,RP-LC retention time [s]
1,CCn1ccnc1N1CCN(CC(=O)Nc2cc(Cl)ccc2OC)CC1,552
2,CCOC(=O)c1c(C)c(CCC(=O)NCCN2CCCCC2)n(C)c1C,624
3,O=C(CSc1nnc2c3sc(N4CCCC4)nc3ncn12)Nc1ccc(Cl)cc1,855
4,O=C(CN1CCN(Cc2ccccc2F)C1=O)NCc1ccc(N2CCCC2)cc1,783
5,CCN1CCN(CCNC(=O)C2CN(C(=O)c3cccs3)CC23CCCCC3)CC1 (stereo not drawn),589
6,COc1ccc(N2CCN(c3nnc(-c4nnc(C)o4)c4ccccc34)CC2)cc1,744
7,Cc1ccc(-c2ccc(N3CCCC(C(=O)N4CCC(C)CC4)C3)nn2)cc1C (stereo not drawn),792
8,COc1cc2c(cc1O)[C@@H](Cc1ccc(O)c(Oc3ccc(C[C@@H]4c5cc(OC)c(OC)cc5CCN4C)cc3)c1)N(C)CC2,639
9,CCN1C(=O)COc2ccc(-c3noc(/C=C/c4ccccc4)n3)cc21,1170
10,Cn1ccc2ccn(CC(=O)Nc3cccc(Br)c3)c(=O)c21,827
11,Cc1ccc(-c2ncc(C(=O)Nc3cc(C)ccc3F)c(-c3ccncc3)n2)cc1,995
12,Cc1ccccc1N1CCn2c1nc1c2c(=O)n(CC(=O)O)c(=O)n1C,664
13,CCCN1C(=O)COc2ccc(-c3csc(NC(=O)c4ccc(Cl)cc4)n3)cc21,1140
14,CN(C)c1ccc(N2C=C(C(=O)N3CCCCC3)S(=O)(=O)c3ccc(F)cc32)cc1,959
15,O=C(Nc1ccc(-c2nc(-c3ccc(Cl)cc3)no2)cc1)c1ccco1,1170
16,CCCc1cc(N2CCN(C(=O)c3cccs3)CC2)nc2nnc(C)n12,613
17,O=S1(=O)CCN(c2ccccc2CC(c2c[nH]c3ccccc23)c2c[nH]c3ccccc23)CC1,964
18,Cn1c(=O)n(C)c2cc(Oc3ccccc3)c(NS(=O)(=O)c3ccc(F)cc3)cc21,868
19,Cc1ccc(CNC(=O)C(C)C2CCOCC2)o1 (stereo not drawn),677
20,CCn1cc(S(=O)(=O)N2C[C@@H](C(=O)NC)[C@H](c3n[nH]c(C)n3)C2)cn1,577
21,NC(=O)CSc1nccn1Cc1cccs1,516
22,O=C(Nc1cccc(-c2ccc(N3CCOCC3)nn2)c1)Nc1ccccc1C(F)(F)F,750

row,SMILES,RP-LC retention time [s]
1,CCOc1cc(=O)n2c(c1C(=O)Nc1ccc(Cl)cc1)CCCC2,769
2,CCCN(Cc1ccc(F)cc1)Cc1cc(=O)n2cc(Cl)ccc2n1,659
3,CCOc1ccc(NC(=O)NCCc2cn(C)c3ncccc23)cc1,676
4,Cc1nc(-c2ccccc2)cc2nn(CC(=O)N(C)c3ccccc3)c(=O)n12,917
5,O=C1NC2(CCN(C(=O)c3ccccc3)CC2)N=C1c1cccc(F)c1,748
6,COc1cccc(-n2cc(C(=O)O)c3c2C(c2ccc(OC)c(OC)c2)CC(=O)N3)c1 (stereo not drawn),717
7,CCn1nccc1C(=O)N1CC(n2cc(C(=O)N3CCOCC3)nn2)C1,610
8,O=C(Nc1ccc2c(c1)OCCO2)N1CCN(c2nc3ccccc3n(Cc3ccccc3)c2=O)CC1,1010
9,CCOCCCNC(=O)CN1c2ccc(CC)cc2-c2ccccc2S1(=O)=O,926
10,Cn1nc(CNC(=O)C2(c3ccccc3)CC2)c2c1CCN(S(C)(=O)=O)C2,694
11,Cc1cc(C2CCCN2C(=O)Nc2ccc(C)c(C)c2)no1 (stereo not drawn),857
12,CCOC(=O)c1cccc(Nc2c(C(=O)N3CCCC(C)C3)cnc3nc(C)ccc23)c1 (stereo not drawn),653
13,CCCN(CCC)c1nc(C(=O)OCC)nc2ccccc12,812
14,CSc1ccc(-c2nc3cccc(C)n3c2Nc2ccc(Cl)cc2)cc1,788
15,CCCn1c(=O)sc2cc(S(=O)(=O)N3CCC(C(=O)NCc4ccccn4)CC3)ccc21,662
16,Cc1ccc(OCC(O)Cn2c(C3CC3)nc3ccccc32)cc1 (stereo not drawn),697
17,Cc1cccnc1NC(=O)c1c[nH]c2c(C(F)(F)F)cccc2c1=O,573
18,CCN1CCN(c2cc(C)c3cc(NC(=S)NCc4ccc(C)cc4)ccc3n2)CC1,617
19,Nc1cc(C2CCN(S(=O)(=O)c3cccc(Cl)c3)CC2)no1,792
20,COc1ccc(-c2noc(C3CCCN3C(=O)Nc3ccccc3C)n2)cc1 (stereo not drawn),983
21,CC1CN(c2ccc(Br)cc2)c2nc3c(c(=O)n(CC(=O)O)c(=O)n3C)n2C1 (stereo not drawn),829
22,CCc1ccc(NC(=O)CCc2c(C)n(C)c3nc(-c4ccccc4)nn3c2=O)cc1,893

row,SMILES,RP-LC retention time [s]
1,O=C(NCCN1CCOCC1)c1csc(N2CCN(c3ccc(F)cc3)CC2)n1,664
2,Cc1ccnc(NC(=O)C2CCCN(S(=O)(=O)c3c[nH]c(C(=O)N4CCCC4)c3)C2)c1 (stereo not drawn),614
3,O=C(NCc1cccnc1-c1ccccc1)c1ccc(Br)cc1,686
4,CC(C)OCCCNC(=O)CCc1nnc2c3cc(-c4ccc(F)cc4)nn3ccn12,710
5,CCOCC(=O)Nc1cccc(OCc2nnc(-c3ccc(OC)cc3)o2)c1,830
6,O=C(Cn1ccc2ccc(N3CCOCC3)nc21)N1CCN(c2ccc(Cl)cc2)CC1,1000
7,COc1ccc2c(c1)CCc1sc(NC(=O)c3cc(OC)c(OC)c(OC)c3)nc1-2,1080
8,CC(C)N1CCn2cc(S(=O)(=O)Nc3ccc(F)cc3)cc2C1=O,757
9,N#Cc1ccc(C(=O)N2CCN(c3nc(CN4CCCCC4)cs3)CC2)cc1,614
10,Cn1nc(C2CCN(C(=O)C3CCC3)CC2)c2c1CCOC2,659
11,Cc1nc(-c2csc(S(=O)(=O)N3CCC(C(=O)Nc4ccc(F)cc4C)CC3)c2)no1,886
12,CC(=O)N1CCN(c2nccc(-n3nc(C)cc3C)n2)CC1,716
13,O=C(c1ccc(F)cc1)N1CCC(CCNS(=O)(=O)c2ccc(F)cc2F)CC1,809
14,Cc1csc(-c2ccc(N3CCN(C(=O)c4ccncc4)CC3)nc2)n1,632
15,COc1cccc(C(C)NC(=O)CN2C(=O)NC3(CCCCC3)C2=O)c1 (stereo not drawn),748
16,Cc1cc(-c2nnc(C3CC3)o2)c(C)n1CC(=O)NCc1ccccc1Cl,769
17,COc1ccc(-c2csc(Nc3ccc(C(=O)O)cc3)n2)cc1,876
18,CCOc1ccc2c(n1)CCN(C(=O)NC1CCCC1)C2,731
19,CCOC(=O)c1cnc(N2CCN(c3ccc(Cl)cc3)CC2)nc1C,1380
20,Cc1ccc(S(=O)(=O)N2CCC(C(=O)NCCc3csc(-c4cccs4)n3)CC2)c(C)c1,955
21,O=C(NC1CCN(c2cc(-c3ccc(Cl)cc3)[nH]n2)C1)c1ccncc1 (stereo not drawn),643
22,Cc1noc(Cc2nnc(-c3cccc(F)c3)o2)n1,730
